Assay: Relative stability of the crystalline forms of sitagliptin L-tartrate (polymorph transformation on contamination/seeding with Form Z1)
Assay type: physicochemical
Conditions: for stability of the crystalline form (polymorph) relative to the other form: comparison of WO 2005/072530 crystalline form with Form Z1 of sitagliptin L-tartrate, further experiments
Description: When studying the properties of salts of (2R)-4-oxo-4-[3-(trifluoromethyl)-5,6-dihydro[1,2,4]triazolo[4,3-α]pyrazin-7(8H)-yl]-1-(2,4,5-trifluorophenyl)butan-2-amine (sitagliptin), a quite new polymorph (Form Z1) of the salt of (2R)-4-oxo-4-[3-(trifluoromethyl)-5,6-dihydro[1,2,4]triazolo[4,3-α]pyrazin-7(8H)-yl]-1-(2,4,5-trifluorophenyl)butan-2-amine (sitagliptin) with L-tartaric acid has been successfully obtained, characterized by the following reflections in the X-ray powder pattern: 5.9; 9.8; 14.2; 19.5; 23.8 and 26.2±0.2° 2-theta.
Preparation of the Salt of (2R)-4-oxo-4-[3-(trifluoromethyl)-5,6-dihydro[1,2,4]triazolo[4,3-α]pyrazin-7(8H)-yl]-1-(2,4,5-trifluorophenyl)butan-2-amine with L-tartaric acid (Mixture of Forms) The salt of (2R)-4-oxo-4-[3-(trifluoromethyl)-5,6-dihydro[1,2,4]triazolo[4,3-α]pyrazin-7(8H)-yl]-1-(2,4,5-trifluorophenyl)butan-2-amine (sitagliptin) with L-tartaric acid, prepared in accordance with Example 1 (according to WO 2005/072530) (2 g) was suspended in propan-2-ol (50 ml) and the suspension was heated up to 50° C. under constant agitation. The polymorph Z1 (0.1 g) prepared in accordance with Example 2 was added to the white suspension. The mixture was agitated at the same temperature for 20 minutes and after cooling to 20° C. the product was filtered off and washed with a small amount of propan-2-ol. The obtained product was dried in a vacuum drier at 40° C. 1.9 g of a mixture of forms was obtained, Form Z1 being enriched considerably.

Compound	stability of the crystalline form (polymorph) relative to the other form	transformation of the original polymorph to Form Z1 (inconsiderable contamination by Form Z1, even under the conditions in which the original crystalline form is prepared)
N[C@@H](CC(=O)N1CCn2c(nnc2C(F)(F)F)C1)Cc1cc(F)c(F)cc1F.O=C(O)C(O)C(O)C(=O)O [Form Z1, salt of (2R)-4-oxo-4-[3-(trifluoromethyl)-5,6-dihydro[1,2,4]triazolo[4,3-α]pyrazin-7(8H)-yl]-1-(2,4,5-trifluorophenyl)butan-2-amine (sitagliptin) with L-tartaric acid]	more stable	–
N[C@@H](CC(=O)N1CCn2c(nnc2C(F)(F)F)C1)Cc1cc(F)c(F)cc1F.O=C(O)C(O)C(O)C(=O)O [previously described crystalline form, Salt of (2R)-4-oxo-4-[3-(trifluoromethyl)-5,6-dihydro[1,2,4]triazolo[4,3-α]pyrazin-7(8H)-yl]-1-(2,4,5-trifluorophenyl)butan-2-amine with L-tartaric acid]	significantly less stable	very quick transformation
